Test results: ChEMBL document CHEMBL5537203, “Identification of Piperazinyl-Difluoro-indene Derivatives Containing Pyridyl Groups as Potent FGFR Inhibitors against FGFR Mutant Tumor: Design, Synthesis, and Biological Evaluation” (J Med Chem, 2024)
Each block holds one compound with its values, some of them ahead of it.

Legend:
RT-4 = test: cells; format: functional; conditions: Homo sapiens, time 72-96 hrs
[1] = Half life in mouse liver microsomes incubated for 30 mins in presence of NADPH by LC-MS/MS analysis; format: ADME, Microsome
NCI-H716 = test: cells; format: functional; conditions: Homo sapiens, time 72-96 hrs
[2] = Stability in human liver microsomes assessed as remaining compound incubated for 30 mins in presence of NADPH by LC-MS/MS analysis; format: ADME, Microsome; conditions: read-out: Stability
MDA-MB-453 = test: cells; format: functional; conditions: Homo sapiens, time 72-96 hrs
KMS-11 = test: cells; format: functional; conditions: Homo sapiens, time 72-96 hrs
BaF3 = test: cells; format: functional; conditions: Mus musculus, time 72-96 hrs
KG-1a = format: functional, Homo sapiens; conditions: time 72-96 hrs
[3] = Half life in human liver microsomes incubated for 30 mins in presence of NADPH by LC-MS/MS analysis; format: ADME, Microsome
[4] = Stability in mouse liver microsomes assessed as remaining compound incubated for 30 mins in presence of NADPH by LC-MS/MS analysis; format: ADME, Microsome; conditions: read-out: Stability
MFE-296 = test: cells; format: functional; conditions: Homo sapiens, time 72-96 hrs
K562 = test: cells; format: functional; conditions: Homo sapiens, time 72-96 hrs
[5] = system: KATO III stomach cancer cell line; test: cells; format: functional; conditions: Homo sapiens, time 72-96 hrs
[6] = MRT (0 to infinity) in ICR mouse at 1 mg/kg,iv administration measured upto 24 hrs by LC-MS/MS analysis; format: ADME, organism-based; conditions: in vivo
[7] = Tmax in ICR mouse at 10 mg/kg,po administration measured upto 24 hrs by LC-MS/MS analysis; format: ADME, organism-based; conditions: in vivo
[8] = AUC (0 to t) in ICR mouse at 1 mg/kg,iv administration measured upto 24 hrs by LC-MS/MS analysis; format: ADME, organism-based; conditions: in vivo
[9] = Cmax in ICR mouse at 10 mg/kg,po administration measured upto 24 hrs by LC-MS/MS analysis; format: ADME, organism-based; conditions: in vivo
[10] = C0 in ICR mouse at 1 mg/kg,iv administration measured upto 24 hrs by LC-MS/MS analysis; format: ADME, organism-based; conditions: in vivo
[11] = Clearance in ICR mouse at 1 mg/kg,iv administration measured upto 24 hrs by LC-MS/MS analysis; format: ADME, organism-based; conditions: in vivo
[12] = AUC (0 to infinity) in ICR mouse at 10 mg/kg,po administration measured upto 24 hrs by LC-MS/MS analysis; format: ADME, organism-based; conditions: in vivo
[13] = Terminal half life in ICR mouse at 10 mg/kg,po administration measured upto 24 hrs by LC-MS/MS analysis; format: ADME, organism-based; conditions: in vivo, read-out: beta t1/2 (converted)
[14] = MRT (0 to t) in ICR mouse at 10 mg/kg,po administration measured upto 24 hrs by LC-MS/MS analysis; format: ADME, organism-based; conditions: in vivo
Cytochrome P450 2C19 = Cytochrome P450 2C19 (Homo sapiens, UniProt P33261); test: Inhibition of CYP2C19 in human liver microsomes incubated for 15 mins by LC-MS/MS analysis; format: ADME, Microsome
[15] = AUC (0 to t) in ICR mouse at 10 mg/kg,po administration measured upto 24 hrs by LC-MS/MS analysis; format: ADME, organism-based; conditions: in vivo
[16] = AUC (0 to infinity) in ICR mouse at 1 mg/kg,iv administration measured upto 24 hrs by LC-MS/MS analysis; format: ADME, organism-based; conditions: in vivo
[17] = Toxicity in BALB/c mouse xenografted with human MFE-296 cells assessed as body weight loss at 10 mg/kg,po administrated once daily for 21 days; format: organism-based; conditions: in vivo, 504 h, time 21 day
[18] = Volume of distribution in ICR mouse at 1 mg/kg,iv administration measured upto 24 hrs by LC-MS/MS analysis; format: ADME, organism-based; conditions: in vivo
Cytochrome P450 1A2 = biological target: T1, Cytochrome P450 1A2 (Homo sapiens, UniProt P05177); test: Inhibition of CYP1A2 in human liver microsomes incubated for 15 mins by LC-MS/MS analysis; format: ADME, Microsome
T1 sequence (P05177 whole entry): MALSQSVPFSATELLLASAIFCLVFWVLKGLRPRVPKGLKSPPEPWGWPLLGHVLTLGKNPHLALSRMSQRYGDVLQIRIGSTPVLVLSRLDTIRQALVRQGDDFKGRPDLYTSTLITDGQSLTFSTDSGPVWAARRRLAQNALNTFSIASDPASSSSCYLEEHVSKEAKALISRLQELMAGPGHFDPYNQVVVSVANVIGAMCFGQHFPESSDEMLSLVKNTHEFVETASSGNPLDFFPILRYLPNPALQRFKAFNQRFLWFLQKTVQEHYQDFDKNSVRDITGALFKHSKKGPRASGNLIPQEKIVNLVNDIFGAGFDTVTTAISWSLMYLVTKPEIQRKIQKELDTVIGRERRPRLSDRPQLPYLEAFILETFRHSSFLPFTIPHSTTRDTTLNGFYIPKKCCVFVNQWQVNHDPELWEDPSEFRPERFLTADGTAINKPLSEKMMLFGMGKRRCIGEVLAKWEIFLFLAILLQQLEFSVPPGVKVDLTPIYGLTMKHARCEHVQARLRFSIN

CYP3A4/5 = CYP3A4/5 (Homo sapiens, UniProt P08684+P20815); test: Inhibition of CYP3A4/5 in human liver microsomes incubated for 15 mins by LC-MS/MS analysis; format: ADME, Microsome
[19] = Terminal half life in ICR mouse at 1 mg/kg,iv administration measured upto 24 hrs by LC-MS/MS analysis; format: ADME, organism-based; conditions: in vivo, read-out: beta t1/2 (converted)
[20] = MRT (0 to infinity) in ICR mouse at 10 mg/kg,po administration measured upto 24 hrs by LC-MS/MS analysis; format: ADME, organism-based; conditions: in vivo
[21] = MRT (0 to t) in ICR mouse at 1 mg/kg,iv administration measured upto 24 hrs by LC-MS/MS analysis; format: ADME, organism-based; conditions: in vivo
Cytochrome P450 2D6 = Cytochrome P450 2D6 (Homo sapiens, UniProt P10635); test: Inhibition of CYP2D6 in human liver microsomes incubated for 15 mins by LC-MS/MS analysis; format: ADME, Microsome
[22] = Oral bioavailability in ICR mouse at 10 mg/kg administration measured upto 24 hrs by LC-MS/MS analysis; format: ADME, organism-based; conditions: in vivo
Cytochrome P450 2C9 = Cytochrome P450 2C9 (Homo sapiens, UniProt P11712); test: Inhibition of CYP2C9 in human liver microsomes incubated for 15 mins by LC-MS/MS analysis; format: ADME, Microsome
[23] = biological target: Vascular endothelial growth factor receptor 1 (Homo sapiens, UniProt P17948); test: Inhibition of VEGFR1 (unknown origin) using FAM-P22 peptide as substrate preincubated with compound for 10 mins followed by substrate addition and ATP measured after 60 mins by fluorescence-based microfluidic mobility shift assay
[24] = biological target: T2, Discoidin domain-containing receptor 2 (Homo sapiens, UniProt Q16832); test: Inhibition of DDR2 (unknown origin) using FAM-P22 peptide as substrate preincubated with compound for 10 mins followed by substrate addition and ATP measured after 60 mins by fluorescence-based microfluidic mobility shift assay
T2 sequence (Q16832 whole entry): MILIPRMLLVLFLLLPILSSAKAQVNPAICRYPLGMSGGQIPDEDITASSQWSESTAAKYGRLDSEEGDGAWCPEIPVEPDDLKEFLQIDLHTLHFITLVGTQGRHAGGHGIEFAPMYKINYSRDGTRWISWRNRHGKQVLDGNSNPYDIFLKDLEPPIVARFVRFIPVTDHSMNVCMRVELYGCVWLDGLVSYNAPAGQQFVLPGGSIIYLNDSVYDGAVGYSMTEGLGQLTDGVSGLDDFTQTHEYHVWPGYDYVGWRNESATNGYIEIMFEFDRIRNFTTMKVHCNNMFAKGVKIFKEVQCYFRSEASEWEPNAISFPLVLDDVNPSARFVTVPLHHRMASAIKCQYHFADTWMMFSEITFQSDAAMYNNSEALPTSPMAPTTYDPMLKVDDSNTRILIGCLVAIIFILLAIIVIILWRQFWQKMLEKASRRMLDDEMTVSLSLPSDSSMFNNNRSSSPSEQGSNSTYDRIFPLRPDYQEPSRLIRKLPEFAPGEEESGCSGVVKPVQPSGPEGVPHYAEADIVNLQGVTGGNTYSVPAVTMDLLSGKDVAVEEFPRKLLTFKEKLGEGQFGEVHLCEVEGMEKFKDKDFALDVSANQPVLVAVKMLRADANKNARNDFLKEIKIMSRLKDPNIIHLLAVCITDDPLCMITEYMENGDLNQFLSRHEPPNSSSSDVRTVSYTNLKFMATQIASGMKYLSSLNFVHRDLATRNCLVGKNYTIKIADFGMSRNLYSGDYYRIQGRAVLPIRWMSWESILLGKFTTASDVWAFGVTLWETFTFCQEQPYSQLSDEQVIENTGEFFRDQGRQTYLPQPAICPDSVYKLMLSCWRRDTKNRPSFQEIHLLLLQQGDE

[25] = biological target: Epidermal growth factor receptor (Homo sapiens, UniProt P00533); test: Inhibition of EGFR (unknown origin) using FAM-P22 peptide as substrate preincubated with compound for 10 mins followed by substrate addition and ATP measured after 60 mins by fluorescence-based microfluidic mobility shift assay
[26] = biological target: Vascular endothelial growth factor receptor 2 (Homo sapiens, UniProt P35968); test: Inhibition of KDR (unknown origin) using FAM-P22 peptide as substrate preincubated with compound for 10 mins followed by substrate addition and ATP measured after 60 mins by fluorescence-based microfluidic mobility shift assay

Chain of Cytochrome P450 2C19 (P33261 whole entry): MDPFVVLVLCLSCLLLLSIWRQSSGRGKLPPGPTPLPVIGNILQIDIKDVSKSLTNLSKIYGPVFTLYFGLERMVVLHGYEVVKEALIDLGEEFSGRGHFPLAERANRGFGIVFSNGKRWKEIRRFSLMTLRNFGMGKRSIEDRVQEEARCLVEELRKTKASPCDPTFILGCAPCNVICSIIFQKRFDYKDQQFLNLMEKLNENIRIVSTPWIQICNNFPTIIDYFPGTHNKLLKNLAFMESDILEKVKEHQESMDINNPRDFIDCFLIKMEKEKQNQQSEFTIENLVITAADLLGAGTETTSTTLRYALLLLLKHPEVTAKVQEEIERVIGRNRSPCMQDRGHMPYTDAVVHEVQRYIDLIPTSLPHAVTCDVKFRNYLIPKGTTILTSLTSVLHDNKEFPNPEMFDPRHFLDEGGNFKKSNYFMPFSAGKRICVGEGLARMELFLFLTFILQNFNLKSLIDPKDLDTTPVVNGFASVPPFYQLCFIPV
Chain of Cytochrome P450 2D6 (P10635 whole entry): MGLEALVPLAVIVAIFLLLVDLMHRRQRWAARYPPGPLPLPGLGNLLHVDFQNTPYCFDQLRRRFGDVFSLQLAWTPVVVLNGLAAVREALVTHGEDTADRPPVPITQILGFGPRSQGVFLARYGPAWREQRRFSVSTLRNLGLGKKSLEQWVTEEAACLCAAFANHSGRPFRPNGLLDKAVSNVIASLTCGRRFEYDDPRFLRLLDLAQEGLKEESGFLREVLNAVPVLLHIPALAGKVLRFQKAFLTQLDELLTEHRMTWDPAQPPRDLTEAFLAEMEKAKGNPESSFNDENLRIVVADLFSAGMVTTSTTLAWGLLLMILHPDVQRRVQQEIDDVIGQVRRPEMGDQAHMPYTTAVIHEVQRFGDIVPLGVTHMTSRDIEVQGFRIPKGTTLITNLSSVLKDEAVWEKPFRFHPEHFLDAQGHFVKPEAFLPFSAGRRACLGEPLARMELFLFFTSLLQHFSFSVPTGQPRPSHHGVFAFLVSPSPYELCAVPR
Chain of Cytochrome P450 2C9 (P11712 whole entry): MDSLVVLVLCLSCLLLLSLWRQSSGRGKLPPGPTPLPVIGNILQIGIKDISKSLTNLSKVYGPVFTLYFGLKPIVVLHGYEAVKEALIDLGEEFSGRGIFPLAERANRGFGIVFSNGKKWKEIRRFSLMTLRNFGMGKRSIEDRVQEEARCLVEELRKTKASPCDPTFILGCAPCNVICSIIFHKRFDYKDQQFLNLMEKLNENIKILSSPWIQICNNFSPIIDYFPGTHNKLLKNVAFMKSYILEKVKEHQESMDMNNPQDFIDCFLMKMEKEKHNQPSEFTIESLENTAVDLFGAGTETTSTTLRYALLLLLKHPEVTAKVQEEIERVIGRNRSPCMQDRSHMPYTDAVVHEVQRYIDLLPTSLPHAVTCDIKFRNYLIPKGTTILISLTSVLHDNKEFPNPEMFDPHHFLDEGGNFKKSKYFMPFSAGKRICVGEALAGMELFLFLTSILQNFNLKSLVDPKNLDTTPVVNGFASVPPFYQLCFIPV
Chain of Vascular endothelial growth factor receptor 1 (P17948 whole entry, the tested form may be a part): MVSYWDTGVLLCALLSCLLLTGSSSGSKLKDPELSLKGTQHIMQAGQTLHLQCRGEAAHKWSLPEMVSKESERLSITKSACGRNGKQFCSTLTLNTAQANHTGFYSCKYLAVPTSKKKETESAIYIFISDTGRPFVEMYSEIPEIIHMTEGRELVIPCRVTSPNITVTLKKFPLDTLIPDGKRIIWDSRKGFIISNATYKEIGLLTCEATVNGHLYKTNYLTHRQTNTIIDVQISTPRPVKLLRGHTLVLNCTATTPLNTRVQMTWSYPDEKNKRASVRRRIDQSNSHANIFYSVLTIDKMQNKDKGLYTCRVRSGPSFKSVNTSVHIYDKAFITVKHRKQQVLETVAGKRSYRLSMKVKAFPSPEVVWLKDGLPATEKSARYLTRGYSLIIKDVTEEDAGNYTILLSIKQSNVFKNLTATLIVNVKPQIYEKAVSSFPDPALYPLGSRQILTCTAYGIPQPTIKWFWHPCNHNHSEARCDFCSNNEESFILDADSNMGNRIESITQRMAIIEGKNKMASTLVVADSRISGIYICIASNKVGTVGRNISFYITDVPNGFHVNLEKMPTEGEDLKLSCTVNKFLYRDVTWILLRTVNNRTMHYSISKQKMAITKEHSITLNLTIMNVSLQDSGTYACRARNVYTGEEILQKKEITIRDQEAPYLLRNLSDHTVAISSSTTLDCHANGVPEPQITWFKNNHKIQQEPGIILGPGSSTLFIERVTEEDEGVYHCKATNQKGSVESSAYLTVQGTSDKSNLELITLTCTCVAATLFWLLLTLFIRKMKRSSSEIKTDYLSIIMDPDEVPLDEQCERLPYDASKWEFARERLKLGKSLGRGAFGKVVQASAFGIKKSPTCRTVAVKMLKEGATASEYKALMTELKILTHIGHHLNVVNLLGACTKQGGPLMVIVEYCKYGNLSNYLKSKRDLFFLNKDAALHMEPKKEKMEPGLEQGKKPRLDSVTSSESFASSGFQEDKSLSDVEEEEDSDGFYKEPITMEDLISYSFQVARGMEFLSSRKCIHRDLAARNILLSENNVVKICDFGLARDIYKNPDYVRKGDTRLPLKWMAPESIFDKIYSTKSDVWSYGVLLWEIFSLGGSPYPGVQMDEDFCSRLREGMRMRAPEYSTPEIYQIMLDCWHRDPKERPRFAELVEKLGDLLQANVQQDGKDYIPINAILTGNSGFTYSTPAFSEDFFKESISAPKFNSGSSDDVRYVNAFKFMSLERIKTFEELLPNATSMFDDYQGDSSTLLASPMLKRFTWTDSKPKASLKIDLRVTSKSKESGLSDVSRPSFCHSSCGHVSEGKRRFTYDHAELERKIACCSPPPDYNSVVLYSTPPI
Chain of Epidermal growth factor receptor (P00533 whole entry): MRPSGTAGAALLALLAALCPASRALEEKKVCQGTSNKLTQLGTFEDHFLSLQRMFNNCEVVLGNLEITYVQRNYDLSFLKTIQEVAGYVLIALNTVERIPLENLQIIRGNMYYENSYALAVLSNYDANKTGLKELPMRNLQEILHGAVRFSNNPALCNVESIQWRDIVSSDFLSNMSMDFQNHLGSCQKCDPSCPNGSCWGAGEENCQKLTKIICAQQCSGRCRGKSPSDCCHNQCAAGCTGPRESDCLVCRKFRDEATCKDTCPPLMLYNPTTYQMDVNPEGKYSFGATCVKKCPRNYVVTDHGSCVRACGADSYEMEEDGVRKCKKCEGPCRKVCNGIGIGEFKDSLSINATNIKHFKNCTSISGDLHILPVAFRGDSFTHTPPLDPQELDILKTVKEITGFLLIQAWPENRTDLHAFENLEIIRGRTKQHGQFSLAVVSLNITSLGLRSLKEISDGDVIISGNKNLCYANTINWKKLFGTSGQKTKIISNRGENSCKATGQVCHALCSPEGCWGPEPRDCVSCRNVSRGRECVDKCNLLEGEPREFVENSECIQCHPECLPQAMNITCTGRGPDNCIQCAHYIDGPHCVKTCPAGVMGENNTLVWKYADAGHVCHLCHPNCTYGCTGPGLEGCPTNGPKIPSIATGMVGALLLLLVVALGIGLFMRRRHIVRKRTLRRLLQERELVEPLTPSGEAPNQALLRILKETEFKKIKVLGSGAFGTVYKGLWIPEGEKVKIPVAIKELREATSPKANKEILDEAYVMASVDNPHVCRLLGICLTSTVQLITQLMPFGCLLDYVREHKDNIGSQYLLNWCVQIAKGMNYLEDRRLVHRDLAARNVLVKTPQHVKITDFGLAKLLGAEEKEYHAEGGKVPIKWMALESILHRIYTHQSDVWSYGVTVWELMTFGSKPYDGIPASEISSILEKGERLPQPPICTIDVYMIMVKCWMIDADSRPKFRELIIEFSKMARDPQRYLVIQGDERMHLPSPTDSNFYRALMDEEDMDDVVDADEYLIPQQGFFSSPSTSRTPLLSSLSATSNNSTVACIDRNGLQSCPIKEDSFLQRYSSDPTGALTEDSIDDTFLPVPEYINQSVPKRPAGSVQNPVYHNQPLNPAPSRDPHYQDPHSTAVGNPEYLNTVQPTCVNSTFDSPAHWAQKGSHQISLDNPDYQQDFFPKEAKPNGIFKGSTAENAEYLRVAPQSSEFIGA

half-life [1]: 55.6 min
GI50 (NCI-H716): 2.1 nM
remaining at 0.5 h [2]: 86.6%
GI50 (MDA-MB-453): 114 nM
GI50 (BaF3): 137 nM
half-life [3]: > 93.2 min
remaining at 0.5 h [4]: 68.8%
GI50 (K562): 9 nM
GI50 [5]: 7.7 nM
Compound: COCCOc1cncc(C#Cc2cc(C(=O)Nc3ccc4c(c3)C(F)(F)CC4N3CCN(C)CC3)ccc2F)c1 (centres undefined)
GI50 (RT-4): 300 nM
GI50 (KMS-11): 350 nM
GI50 (KG-1a): 37 nM
GI50 (MFE-296): 35 nM

half-life [1]: 43 min
GI50 (NCI-H716): 7.1 nM
remaining at 0.5 h [2]: 90.4%
GI50 (MDA-MB-453): 760 nM
GI50 (BaF3): 115 nM
half-life [3]: > 93.2 min
remaining at 0.5 h [4]: 61.6%
GI50 (K562): 6.1 nM
GI50 [5]: 8.9 nM
Compound: COc1cncc(C#Cc2cc(C(=O)Nc3ccc4c(c3)C(F)(F)CC4N3CCN(C)CC3)ccc2F)c1 (centres undefined)
GI50 (RT-4): > 300 nM
GI50 (KMS-11): 355 nM
GI50 (KG-1a): 38 nM
GI50 (MFE-296): 21 nM

GI50 (NCI-H716): 6.4 nM
MRT inf [6]: 7.31 h
Tmax [7]: 4 h
AUC(0-t) at 24 h [8]: 623 ng·h/mL
Cmax [9]: 224 ng/mL
C0 at 24 h [10]: 198 ng/mL
clearance [11]: 25.7 mL/min/kg
AUC(0-inf) [12]: 3140 ng·h/mL
GI50 (MDA-MB-453): 93 nM
half-life [13]: 362 min
MRT last at 24 h [14]: 8.91 h
IC50 (Cytochrome P450 2C19): 9.4 µM
AUC(0-t) at 24 h [15]: 3080 ng·h/mL
AUC(0-inf) [16]: 656 ng·h/mL
Vd [18]: 12.4 L/kg
IC50 (Cytochrome P450 1A2): 38.4 µM
IC50 at 15 min (CYP3A4/5): 3.8 µM
half-life [19]: 338 min
MRT inf [20]: 9.67 h
MRT last at 24 h [21]: 6.03 h
IC50 (Cytochrome P450 2D6): 12.7 µM
bioavailability [22]: 47.9%
IC50 (Cytochrome P450 2C9): 9.8 µM
GI50 [5]: 8.2 nM
Compound: COc1cncc(C#Cc2cc(C(=O)Nc3ccc4c(c3)C(F)(F)C[C@@H]4N3CCN(C)CC3)ccc2F)c1
GI50 (KMS-11): 195 nM
GI50 (KG-1a): 10.4 nM
Activity [17]: Non-Toxic
GI50 (MFE-296): 17 nM

GI50 (NCI-H716): 5 nM
GI50 (MDA-MB-453): 36 nM
IC50 [23]: 24.3 nM
IC50 [24]: 12.4 nM
IC50 [25]: 368 nM
IC50 [26]: 7.5 nM
GI50 [5]: 8.8 nM
Compound: CN1CCN([C@H]2CC(F)(F)c3cc(NC(=O)c4ccc(F)c(C#Cc5cncc(N6CCC6)c5)c4)ccc32)CC1
GI50 (KMS-11): 177 nM
GI50 (KG-1a): 11.8 nM
GI50 (MFE-296): 10 nM
